# In ChEMBL document CHEMBL4304741, “Modification and Biological Evaluation of a Series of 1,5-Diaryl-1,2,4-triazole Compounds as Novel Agents against Pancreatic Cancer Metastasis through Targeting Myoferlin” (J Med Chem, 2019):
# pIC50: −log10 of the molar value. Activity calls are given as the source filed them. The rule behind the calls is not given here.
# Columns and labels:
# PANC-1 [1] = assay: Antimigratory activity against human PANC1 cells measured after 18 hrs in presence of mitomycin C using crystal violet staining by inverted microscopy-based transwell assay; type: functional, cell-based
# [2] = Cytotoxicity against human HPDE6c7 cells assessed as reduction in cell viability measured after 48 hrs by MTS assay; type: cell-based; settings: HPDE6c7, 48 h
# [3] = Cytotoxicity against HAF cells assessed as reduction in cell viability measured after 48 hrs by MTS assay; type: cell-based; settings: Homo sapiens
# PANC-1 [4] = assay: Cytotoxicity against human PANC1 cells assessed as reduction in cell viability at 0.1 to 1 uM measured after 18 hrs by MTS assay; type: cell-based; settings: panc-1, 18 h
# Myoferlin [5] = biological target: T1, Myoferlin (Homo sapiens, UniProt Q9NZM1); assay: Binding affinity to recombinant human GST-tagged MYOF C2 domain (3445 to 3912 residues) expressed in Escherichia coli BL21 (DE3) at 145 uM by STD-NMR analysis
# PANC-1 [6] = assay: Antimigratory activity against MYOF-knockout human PANC1 cells measured after 18 hrs in presence of mitomycin C using crystal violet staining by inverted microscopy-based transwell assay; type: functional, cell-based
# PANC-1 [7] = assay: Antimigratory activity against MYOF-knockout human PANC1 cells transfected with pcDNA3.1-MYOF measured after 18 hrs in presence of mitomycin C using crystal violet staining by inverted microscopy-based transwell assay; type: functional, cell-based
# Cytochrome P450 1A2 = biological target: T2, Cytochrome P450 1A2 (Homo sapiens, UniProt P05177); assay: Inhibition of CYP1A2 in human liver microsomes using phenacetin as substrate preincubated for 5 mins followed by NADPH-generating system addition and measured after 20 mins by LC-MS/MS analysis
# T2 sequence (P05177 whole entry): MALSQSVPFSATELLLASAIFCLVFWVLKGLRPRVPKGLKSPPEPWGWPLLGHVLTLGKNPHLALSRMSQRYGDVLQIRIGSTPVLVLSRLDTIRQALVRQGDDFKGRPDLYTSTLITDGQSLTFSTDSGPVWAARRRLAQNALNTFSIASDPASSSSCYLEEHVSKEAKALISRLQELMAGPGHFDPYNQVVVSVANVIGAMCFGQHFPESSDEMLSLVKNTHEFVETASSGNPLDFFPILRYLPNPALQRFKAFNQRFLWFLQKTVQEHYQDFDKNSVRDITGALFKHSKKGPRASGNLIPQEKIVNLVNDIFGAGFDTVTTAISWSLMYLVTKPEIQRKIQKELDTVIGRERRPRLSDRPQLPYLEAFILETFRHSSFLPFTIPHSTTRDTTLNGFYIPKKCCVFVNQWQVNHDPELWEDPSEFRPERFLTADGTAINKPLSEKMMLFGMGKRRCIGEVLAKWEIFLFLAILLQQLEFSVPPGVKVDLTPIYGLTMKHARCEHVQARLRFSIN
# Cytochrome P450 2B6 = biological target: T3, Cytochrome P450 2B6 (Homo sapiens, UniProt P20813); assay: Inhibition of CYP2B6 in human liver microsomes using bupropion as substrate preincubated for 5 mins followed by NADPH-generating system addition and measured after 20 mins by LC-MS/MS analysis
# T3 sequence (P20813 whole entry): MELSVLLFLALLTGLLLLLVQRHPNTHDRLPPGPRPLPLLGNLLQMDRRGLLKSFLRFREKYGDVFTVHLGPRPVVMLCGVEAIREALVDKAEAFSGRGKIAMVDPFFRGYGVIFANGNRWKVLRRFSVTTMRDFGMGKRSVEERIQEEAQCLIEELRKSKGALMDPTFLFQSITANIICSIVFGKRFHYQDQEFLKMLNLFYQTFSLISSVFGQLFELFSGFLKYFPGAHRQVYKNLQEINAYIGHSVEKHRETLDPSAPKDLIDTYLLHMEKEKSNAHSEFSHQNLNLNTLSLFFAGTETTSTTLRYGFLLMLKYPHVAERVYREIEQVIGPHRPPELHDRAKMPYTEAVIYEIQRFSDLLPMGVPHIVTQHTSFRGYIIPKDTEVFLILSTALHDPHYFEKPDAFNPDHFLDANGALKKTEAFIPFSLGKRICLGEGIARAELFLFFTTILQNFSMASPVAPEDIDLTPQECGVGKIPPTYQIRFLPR
# Cytochrome P450 2D6 = Cytochrome P450 2D6 (Homo sapiens, UniProt P10635); assay: Inhibition of CYP2D6 in human liver microsomes using tolbutamide as substrate preincubated for 5 mins followed by NADPH-generating system addition and measured after 20 mins by LC-MS/MS analysis
# Cytochrome P450 3A4 = Cytochrome P450 3A4 (Homo sapiens, UniProt P08684); assay: Inhibition of CYP3A4 in human liver microsomes using midazolam as substrate preincubated for 5 mins followed by NADPH-generating system addition and measured after 20 mins by LC-MS/MS analysis
# PANC-1 [8] = assay: Antimetastatic activity against human PANC1 cells harboring luciferase reporter gene xenografted in Balb/c nude mouse assessed as reduction in lung metastasis burden by measuring reduction in luminescence at 50 mg/kg/day, ip measured every 10 days by bioluminescence imaging analysis relative to control; type: functional
# [9] = Toxicity in Balb/c nude mouse xenografted with PANC1 cells assessed as body weight loss at 25 to 50 mg/kg/day, ip; type: organism-based; settings: in vivo
# [10] = Toxicity in Balb/c nude mouse xenografted with PANC1 cells assessed as pathological changes in heart at 25 to 50 mg/kg/day, ip by H and E staining-based microscopic analysis; type: organism-based; settings: in vivo
# [11] = Toxicity in Balb/c nude mouse xenografted with PANC1 cells assessed as pathological changes in liver at 25 to 50 mg/kg/day, ip by H and E staining-based microscopic analysis; type: organism-based; settings: in vivo
# [12] = Toxicity in Balb/c nude mouse xenografted with PANC1 cells assessed as pathological changes in spleen at 25 to 50 mg/kg/day, ip by H and E staining-based microscopic analysis; type: organism-based; settings: in vivo
# Myoferlin [13] = biological target: T1, Myoferlin; assay: Inhibition of MYOF in human PANC1 cells assessed as reversal of epithelial-mesenchymal transition by measuring down regulation of fibronectin expression up to 400 nM by Western blot analysis; type: cell-based
# Myoferlin [14] = biological target: T1, Myoferlin; assay: Inhibition of MYOF in human PANC1 cells assessed as reduction in MMP1 secretion measured after 24 hrs by SDS-PAGE analysis; type: cell-based
# Myoferlin [15] = biological target: T1, Myoferlin; assay: Inhibition of MYOF in human PANC1 cells assessed as reduction in MMP2 secretion measured after 24 hrs by SDS-PAGE analysis; type: cell-based
# Myoferlin [16] = biological target: T1, Myoferlin; assay: Inhibition of MYOF in human PANC1 cells assessed as reduction in phospho-VEGFR2 level by Western blot analysis; type: cell-based
# Myoferlin [17] = biological target: T1, Myoferlin; assay: Inhibition of MYOF in human PANC1 cells assessed as reduction in VEGFR2 level by Western blot analysis; type: cell-based
# PANC-1 [18] = assay: Effect on E-cadherin expression in MYOF-knockout human PANC1 cells up to 400 nM by Western blot analysis; type: functional, cell-based
# PANC-1 [19] = assay: Effect on fibronectin expression in MYOF-knockout human PANC1 cells up to 400 nM by Western blot analysis; type: functional, cell-based
# PANC-1 [20] = assay: Effect on MMP1 secretion in MYOF-knockout human PANC1 cells up to 400 nM by Western blot analysis; type: functional, cell-based
# [21] = biological target: Vascular endothelial growth factor receptor 2 (Homo sapiens) (UniProt P35968); assay: Effect on VEGFR2 phosphorylation in MYOF-knockout human PANC1 cells up to 400 nM by Western blot analysis
# Sequence of Vascular endothelial growth factor receptor 2 (Homo sapiens) (P35968 whole entry): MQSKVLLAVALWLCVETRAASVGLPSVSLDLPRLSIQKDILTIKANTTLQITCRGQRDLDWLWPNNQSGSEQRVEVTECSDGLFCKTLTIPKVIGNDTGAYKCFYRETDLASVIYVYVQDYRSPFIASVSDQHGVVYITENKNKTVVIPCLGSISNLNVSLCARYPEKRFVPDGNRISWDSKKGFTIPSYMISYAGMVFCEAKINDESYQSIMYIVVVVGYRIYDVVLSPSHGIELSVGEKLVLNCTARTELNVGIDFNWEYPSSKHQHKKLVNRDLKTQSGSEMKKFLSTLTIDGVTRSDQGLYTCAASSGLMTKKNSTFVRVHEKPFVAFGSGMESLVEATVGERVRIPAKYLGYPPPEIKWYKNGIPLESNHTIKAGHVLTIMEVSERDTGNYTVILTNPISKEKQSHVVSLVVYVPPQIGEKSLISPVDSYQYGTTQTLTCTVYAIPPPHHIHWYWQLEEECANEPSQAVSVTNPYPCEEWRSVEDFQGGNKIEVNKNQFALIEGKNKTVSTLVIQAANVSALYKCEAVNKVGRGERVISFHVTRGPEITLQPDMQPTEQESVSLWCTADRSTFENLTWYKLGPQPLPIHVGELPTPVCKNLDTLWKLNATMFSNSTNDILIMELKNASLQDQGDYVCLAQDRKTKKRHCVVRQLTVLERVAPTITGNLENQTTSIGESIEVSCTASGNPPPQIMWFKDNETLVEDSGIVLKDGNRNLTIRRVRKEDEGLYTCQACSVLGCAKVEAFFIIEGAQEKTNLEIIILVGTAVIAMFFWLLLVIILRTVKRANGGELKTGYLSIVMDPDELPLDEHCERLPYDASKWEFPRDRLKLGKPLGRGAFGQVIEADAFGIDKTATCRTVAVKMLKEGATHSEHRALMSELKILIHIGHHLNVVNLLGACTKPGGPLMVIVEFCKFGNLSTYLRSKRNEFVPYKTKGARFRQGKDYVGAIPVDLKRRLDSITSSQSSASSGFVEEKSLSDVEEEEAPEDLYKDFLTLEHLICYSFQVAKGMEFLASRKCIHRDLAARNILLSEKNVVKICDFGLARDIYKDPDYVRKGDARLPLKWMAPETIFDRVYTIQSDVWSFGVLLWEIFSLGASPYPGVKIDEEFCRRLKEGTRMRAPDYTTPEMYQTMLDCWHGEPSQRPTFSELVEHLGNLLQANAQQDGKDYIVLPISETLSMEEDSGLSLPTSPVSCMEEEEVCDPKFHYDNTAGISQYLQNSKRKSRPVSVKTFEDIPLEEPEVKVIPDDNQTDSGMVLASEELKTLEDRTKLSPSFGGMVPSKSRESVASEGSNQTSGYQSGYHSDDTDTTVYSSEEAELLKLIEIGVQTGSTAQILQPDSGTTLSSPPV
# T1 sequence (Q9NZM1 whole entry, the tested form may be a part): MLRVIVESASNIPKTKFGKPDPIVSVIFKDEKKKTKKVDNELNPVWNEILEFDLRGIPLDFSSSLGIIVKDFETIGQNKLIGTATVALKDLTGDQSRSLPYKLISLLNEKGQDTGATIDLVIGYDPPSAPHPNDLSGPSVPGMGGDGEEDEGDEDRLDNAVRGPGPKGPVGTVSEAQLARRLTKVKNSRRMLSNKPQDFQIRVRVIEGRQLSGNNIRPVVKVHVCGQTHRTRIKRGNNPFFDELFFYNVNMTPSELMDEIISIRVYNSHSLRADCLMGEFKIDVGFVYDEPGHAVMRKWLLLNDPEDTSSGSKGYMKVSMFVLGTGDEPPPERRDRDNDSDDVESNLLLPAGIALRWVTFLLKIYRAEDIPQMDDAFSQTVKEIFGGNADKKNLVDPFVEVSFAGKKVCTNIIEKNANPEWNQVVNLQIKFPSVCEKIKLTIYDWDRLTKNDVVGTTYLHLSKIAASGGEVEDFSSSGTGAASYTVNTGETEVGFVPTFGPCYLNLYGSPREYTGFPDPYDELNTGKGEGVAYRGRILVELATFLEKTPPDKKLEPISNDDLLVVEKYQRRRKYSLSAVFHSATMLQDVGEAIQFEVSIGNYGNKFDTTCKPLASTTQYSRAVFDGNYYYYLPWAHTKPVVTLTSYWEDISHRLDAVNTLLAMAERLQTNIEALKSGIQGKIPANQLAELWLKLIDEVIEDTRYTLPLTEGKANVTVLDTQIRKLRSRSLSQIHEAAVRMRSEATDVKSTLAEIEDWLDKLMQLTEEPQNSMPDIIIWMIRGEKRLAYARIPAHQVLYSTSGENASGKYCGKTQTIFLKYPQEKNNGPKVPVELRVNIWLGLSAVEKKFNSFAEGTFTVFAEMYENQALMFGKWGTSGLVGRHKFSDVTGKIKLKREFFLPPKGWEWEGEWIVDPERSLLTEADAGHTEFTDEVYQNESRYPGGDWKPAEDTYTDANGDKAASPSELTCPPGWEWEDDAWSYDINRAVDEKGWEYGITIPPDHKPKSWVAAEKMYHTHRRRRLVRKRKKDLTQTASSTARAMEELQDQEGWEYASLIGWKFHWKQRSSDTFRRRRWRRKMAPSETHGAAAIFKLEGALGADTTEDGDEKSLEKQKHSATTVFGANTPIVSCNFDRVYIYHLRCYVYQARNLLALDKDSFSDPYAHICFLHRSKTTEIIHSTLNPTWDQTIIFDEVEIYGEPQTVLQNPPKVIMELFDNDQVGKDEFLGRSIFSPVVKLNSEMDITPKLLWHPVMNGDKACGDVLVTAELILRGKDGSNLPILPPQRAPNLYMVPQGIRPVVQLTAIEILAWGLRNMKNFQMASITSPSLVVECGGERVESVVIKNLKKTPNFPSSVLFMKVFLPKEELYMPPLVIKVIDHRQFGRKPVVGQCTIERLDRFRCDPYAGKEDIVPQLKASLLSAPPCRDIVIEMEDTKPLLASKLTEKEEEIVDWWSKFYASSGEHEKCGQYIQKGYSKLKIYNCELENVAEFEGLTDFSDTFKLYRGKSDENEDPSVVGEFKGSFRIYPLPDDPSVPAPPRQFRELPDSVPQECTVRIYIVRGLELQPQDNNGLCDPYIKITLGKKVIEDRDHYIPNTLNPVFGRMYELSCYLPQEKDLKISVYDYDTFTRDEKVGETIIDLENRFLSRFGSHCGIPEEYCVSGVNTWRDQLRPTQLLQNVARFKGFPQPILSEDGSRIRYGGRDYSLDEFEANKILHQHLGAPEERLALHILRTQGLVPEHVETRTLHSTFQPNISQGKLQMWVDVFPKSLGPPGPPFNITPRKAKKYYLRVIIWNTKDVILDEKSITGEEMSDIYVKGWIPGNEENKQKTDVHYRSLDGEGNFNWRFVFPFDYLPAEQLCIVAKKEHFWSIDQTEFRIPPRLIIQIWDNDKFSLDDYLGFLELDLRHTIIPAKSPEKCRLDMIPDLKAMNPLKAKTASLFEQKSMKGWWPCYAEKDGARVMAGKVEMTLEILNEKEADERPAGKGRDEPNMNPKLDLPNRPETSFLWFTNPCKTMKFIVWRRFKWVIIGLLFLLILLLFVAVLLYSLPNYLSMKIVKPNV
# Sequence of Cytochrome P450 3A4 (P08684 whole entry): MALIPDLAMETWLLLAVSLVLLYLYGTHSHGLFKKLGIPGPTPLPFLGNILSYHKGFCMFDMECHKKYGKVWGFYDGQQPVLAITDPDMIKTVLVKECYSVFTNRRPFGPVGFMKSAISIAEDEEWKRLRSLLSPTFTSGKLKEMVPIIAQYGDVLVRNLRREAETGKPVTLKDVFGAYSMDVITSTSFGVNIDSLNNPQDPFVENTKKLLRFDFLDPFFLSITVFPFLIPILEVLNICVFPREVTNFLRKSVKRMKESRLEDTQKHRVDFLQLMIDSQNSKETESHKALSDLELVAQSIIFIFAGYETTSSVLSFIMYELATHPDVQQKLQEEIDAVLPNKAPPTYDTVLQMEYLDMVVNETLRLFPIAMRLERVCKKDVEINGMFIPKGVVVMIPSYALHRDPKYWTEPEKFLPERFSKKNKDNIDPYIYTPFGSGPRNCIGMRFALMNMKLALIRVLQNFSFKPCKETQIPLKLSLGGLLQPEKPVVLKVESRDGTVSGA
# Sequence of Cytochrome P450 2D6 (P10635 whole entry): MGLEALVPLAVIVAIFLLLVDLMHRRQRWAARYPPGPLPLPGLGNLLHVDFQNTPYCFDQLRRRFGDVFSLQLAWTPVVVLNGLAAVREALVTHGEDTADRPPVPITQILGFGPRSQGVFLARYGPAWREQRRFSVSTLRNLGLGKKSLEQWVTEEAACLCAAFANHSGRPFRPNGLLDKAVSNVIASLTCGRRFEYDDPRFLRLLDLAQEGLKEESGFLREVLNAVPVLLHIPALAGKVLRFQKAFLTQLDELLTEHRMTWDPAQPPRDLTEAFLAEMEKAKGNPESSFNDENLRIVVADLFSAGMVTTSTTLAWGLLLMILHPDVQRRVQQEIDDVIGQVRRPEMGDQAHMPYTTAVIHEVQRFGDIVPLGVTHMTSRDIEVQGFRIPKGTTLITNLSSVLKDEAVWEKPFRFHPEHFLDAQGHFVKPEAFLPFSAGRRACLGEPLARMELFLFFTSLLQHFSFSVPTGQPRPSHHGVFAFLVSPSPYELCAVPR
smiles,measurement,setting,value
CCc1nc(-c2ncc(OC)cn2)n(-c2cccc(C(=O)NCCCCc3ccccc3)c2)n1,Activity,PANC-1 [1],Dose-dependent effect
same,pIC50,"PANC-1 [1]; PANC-1, 18 h",6.96
same,pIC50,[2],4.83
same,pIC50,[3],5.07
same,Activity,PANC-1 [4],Non-Toxic
same,Activity,Myoferlin [5],Active
same,Activity,PANC-1 [6],inactive
same,Activity,PANC-1 [7],Active
same,pIC50,Cytochrome P450 1A2,< 4.30
same,pIC50,Cytochrome P450 2B6,< 4.30
same,pIC50,Cytochrome P450 2D6,4.30
same,pIC50,Cytochrome P450 3A4,< 4.30
same,fold change (FC),PANC-1 [8],5
same,Activity,[9],Non-Toxic
same,Activity,[10],Non-Toxic
same,Activity,[11],Non-Toxic
same,Activity,[12],Non-Toxic
same,inhibition,Myoferlin [13],Dose-dependent effect
same,inhibition,Myoferlin [14],Dose-dependent effect
same,inhibition,Myoferlin [15],Dose-dependent effect
same,inhibition,Myoferlin [16],Dose-dependent effect
same,inhibition,Myoferlin [17],Dose-dependent effect
same,Activity,PANC-1 [18],inactive
same,Activity,PANC-1 [19],inactive
same,Activity,PANC-1 [20],inactive
same,Activity,[21],inactive
